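Interpolation was linear, between the two tested concentrations surrounding the appropriate level; five concentrations were tested over 48 hours in 96-well plates. TGI marks complete inhibition of growth.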
What was measured:
Assay in all cases: growth of human tumour cells (NCI), 48 h
RPMI-8226 leukemia = test system: RPMI-8226 leukemia
CCRF-CEM leukemia = test system: CCRF-CEM leukemia
A498 renal = test system: A498 renal
HT29 colon = test system: HT29 colon
COLO 205 colon = test system: COLO 205 colon
XF 498 CNS = test system: XF 498 CNS
EKVX NSCLC = test system: EKVX NSCLC
SF-268 CNS = test system: SF-268 CNS
LXFL 529 NSCLC = test system: LXFL 529 NSCLC
OVCAR-5 ovarian = test system: OVCAR-5 ovarian
RXF 393 renal = test system: RXF 393 renal
SF-539 CNS = test system: SF-539 CNS
OVCAR-8 ovarian = test system: OVCAR-8 ovarian
UACC-257 melanoma = test system: UACC-257 melanoma
U251 CNS = test system: U251 CNS
HL-60(TB) leukemia = test system: HL-60(TB) leukemia
LOX IMVI melanoma = test system: LOX IMVI melanoma
NCI-H522 lung = test system: NCI-H522 lung
ACHN renal = test system: ACHN renal
SW-620 colon = test system: SW-620 colon
UACC-62 melanoma = test system: UACC-62 melanoma
SF-295 CNS = test system: SF-295 CNS
A549 NSCLC = test system: A549 NSCLC
NCI-H226 lung = test system: NCI-H226 lung
SK-MEL-28 melanoma = test system: SK-MEL-28 melanoma
SR leukemia = test system: SR leukemia
OVCAR-3 ovarian = test system: OVCAR-3 ovarian
SN12C renal = test system: SN12C renal
SK-OV-3 ovarian = test system: SK-OV-3 ovarian
UO-31 renal = test system: UO-31 renal
CAKI-1 renal = test system: CAKI-1 renal
DMS 114 small cell lung = test system: DMS 114 small cell lung
IGROV1 ovarian = test system: IGROV1 ovarian
SK-MEL-5 melanoma = test system: SK-MEL-5 melanoma
DLD-1 colon = test system: DLD-1 colon
K-562 leukemia = test system: K-562 leukemia
786-0 renal = test system: 786-0 renal
DMS 273 small cell lung = test system: DMS 273 small cell lung
M19-MEL melanoma = test system: M19-MEL melanoma
HCT-116 colon = test system: HCT-116 colon
SNB-75 CNS = test system: SNB-75 CNS
HCT-15 colon = test system: HCT-15 colon
MALME-3M melanoma = test system: MALME-3M melanoma
TK-10 renal = test system: TK-10 renal
NCI-H460 lung = test system: NCI-H460 lung
KM20L2 colon = test system: KM20L2 colon
OVCAR-4 ovarian = test system: OVCAR-4 ovarian
HCC-2998 colon = test system: HCC-2998 colon
HOP-18 NSCLC = test system: HOP-18 NSCLC
NCI-H23 lung = test system: NCI-H23 lung
SNB-78 CNS = test system: SNB-78 CNS
SNB-19 CNS = test system: SNB-19 CNS
SK-MEL-2 melanoma = test system: SK-MEL-2 melanoma
KM12 colon = test system: KM12 colon
MOLT-4 leukemia = test system: MOLT-4 leukemia
HOP-92 NSCLC = test system: HOP-92 NSCLC
M14 melanoma = test system: M14 melanoma
HOP-62 NSCLC = test system: HOP-62 NSCLC
RXF-631 renal = test system: RXF-631 renal

Compound: COc1ccc(CCc2ccccc2CC(=O)O)cc1
- TGI (RPMI-8226 leukemia): > 100 µM
- TGI (CCRF-CEM leukemia): > 100 µM
- TGI (A498 renal): > 100 µM
- TGI (HT29 colon): > 100 µM
- TGI (COLO 205 colon): > 100 µM
- TGI (XF 498 CNS): > 100 µM
- TGI (EKVX NSCLC): > 100 µM
- TGI (SF-268 CNS): > 100 µM
- TGI (LXFL 529 NSCLC): > 100 µM
- TGI (OVCAR-5 ovarian): > 100 µM
- TGI (RXF 393 renal): > 100 µM
- TGI (SF-539 CNS): > 100 µM
- TGI (OVCAR-8 ovarian): > 100 µM
- TGI (UACC-257 melanoma): > 100 µM
- TGI (U251 CNS): > 100 µM
- TGI (HL-60(TB) leukemia): > 100 µM
- TGI (LOX IMVI melanoma): > 100 µM
- TGI (NCI-H522 lung): > 100 µM
- TGI (ACHN renal): > 100 µM
- TGI (SW-620 colon): > 100 µM
- TGI (UACC-62 melanoma): > 100 µM
- TGI (SF-295 CNS): > 100 µM
- TGI (A549 NSCLC): > 100 µM
- TGI (NCI-H226 lung): > 100 µM
- TGI (SK-MEL-28 melanoma): > 100 µM
- TGI (SR leukemia): > 100 µM
- TGI (OVCAR-3 ovarian): > 100 µM
- TGI (SN12C renal): > 100 µM
- TGI (SK-OV-3 ovarian): > 100 µM
- TGI (UO-31 renal): > 100 µM
- TGI (CAKI-1 renal): > 100 µM
- TGI (DMS 114 small cell lung): > 100 µM
- TGI (IGROV1 ovarian): > 100 µM
- TGI (SK-MEL-5 melanoma): > 100 µM
- TGI (DLD-1 colon): > 100 µM
- TGI (K-562 leukemia): > 100 µM
- TGI (786-0 renal): > 100 µM
- TGI (DMS 273 small cell lung): > 100 µM
- TGI (M19-MEL melanoma): > 100 µM
- TGI (HCT-116 colon): > 100 µM
- TGI (SNB-75 CNS): > 100 µM
- TGI (HCT-15 colon): > 100 µM
- TGI (MALME-3M melanoma): > 100 µM
- TGI (TK-10 renal): > 100 µM
- TGI (NCI-H460 lung): > 100 µM
- TGI (KM20L2 colon): > 100 µM
- TGI (OVCAR-4 ovarian): > 100 µM
- TGI (HCC-2998 colon): > 100 µM
- TGI (HOP-18 NSCLC): > 100 µM
- TGI (NCI-H23 lung): > 100 µM
- TGI (SNB-78 CNS): > 100 µM
- TGI (SNB-19 CNS): > 100 µM
- TGI (SK-MEL-2 melanoma): > 100 µM
- TGI (KM12 colon): > 100 µM
- TGI (MOLT-4 leukemia): > 100 µM
- TGI (HOP-92 NSCLC): > 100 µM
- TGI (M14 melanoma): > 100 µM

Compound: CC1(C)C2C/C(=C\c3ccccc3)C(=O)C1C2 (stereo unspecified)
- TGI (RPMI-8226 leukemia): > 100 µM
- TGI (CCRF-CEM leukemia): > 100 µM
- TGI (A498 renal): > 100 µM
- TGI (HT29 colon): > 100 µM
- TGI (HOP-62 NSCLC): > 100 µM
- TGI (COLO 205 colon): > 100 µM
- TGI (EKVX NSCLC): > 100 µM
- TGI (SF-268 CNS): > 100 µM
- TGI (LXFL 529 NSCLC): > 100 µM
- TGI (OVCAR-5 ovarian): > 100 µM
- TGI (RXF 393 renal): > 100 µM
- TGI (SF-539 CNS): > 100 µM
- TGI (OVCAR-8 ovarian): > 100 µM
- TGI (UACC-257 melanoma): > 100 µM
- TGI (U251 CNS): > 100 µM
- TGI (HL-60(TB) leukemia): > 100 µM
- TGI (LOX IMVI melanoma): > 100 µM
- TGI (NCI-H522 lung): > 100 µM
- TGI (ACHN renal): > 100 µM
- TGI (SW-620 colon): > 100 µM
- TGI (UACC-62 melanoma): > 100 µM
- TGI (SF-295 CNS): > 100 µM
- TGI (A549 NSCLC): > 100 µM
- TGI (SK-MEL-28 melanoma): > 100 µM
- TGI (OVCAR-3 ovarian): > 100 µM
- TGI (SN12C renal): > 100 µM
- TGI (SK-OV-3 ovarian): > 100 µM
- TGI (UO-31 renal): > 100 µM
- TGI (CAKI-1 renal): > 100 µM
- TGI (RXF-631 renal): > 100 µM
- TGI (DMS 114 small cell lung): > 100 µM
- TGI (IGROV1 ovarian): > 100 µM
- TGI (SK-MEL-5 melanoma): > 100 µM
- TGI (DLD-1 colon): > 100 µM
- TGI (K-562 leukemia): > 100 µM
- TGI (786-0 renal): > 100 µM
- TGI (DMS 273 small cell lung): > 100 µM
- TGI (M19-MEL melanoma): > 100 µM
- TGI (HCT-116 colon): > 100 µM
- TGI (SNB-75 CNS): 97.5 µM
- TGI (HCT-15 colon): > 100 µM
- TGI (MALME-3M melanoma): > 100 µM
- TGI (TK-10 renal): > 100 µM
- TGI (NCI-H460 lung): > 100 µM
- TGI (OVCAR-4 ovarian): > 100 µM
- TGI (HCC-2998 colon): > 100 µM
- TGI (NCI-H23 lung): > 100 µM
- TGI (SNB-78 CNS): > 100 µM
- TGI (SNB-19 CNS): > 100 µM
- TGI (SK-MEL-2 melanoma): > 100 µM
- TGI (KM12 colon): > 100 µM
- TGI (MOLT-4 leukemia): > 100 µM
- TGI (HOP-92 NSCLC): > 100 µM
- TGI (M14 melanoma): > 100 µM

From PubChem BioAssay (NCI)
